According to patent US6852673B2, “Herbicidal pyridine compounds” (BASF Aktiengesellschaft, priority 1998, dated 2005):

How the values were obtained:
Type in all cases: in vivo
[1] = tested on: Setaria viridis (SETVI); assay: Pre-emergence herbicidal evaluation, green foxtail
Summary of the method: (§1)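 Rating done 2–4 weeks post-treatment in the greenhouse. Compound, in aqueous acetone, was sprayed onto soil surface right after sowing, at rates equivalent to about 0.0125–0.4 kg per hectare, before crop or weed emergence.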

[2] = tested on: Digitaria sanguinalis (DIGSA); assay: Post-emergence herbicidal evaluation, large crabgrass; conditions: rated 2 to 4 weeks after treatment
Description: (§2) [table] [table] […] These acetone solutions are diluted with water and the resulting formulations applied at dosage levels equivalent of about 0.03 to 0.4 kg per hectare of test compound per pot. After spraying the plants are placed on greenhouse benches and are cared for in the usual manner, commensurate with conventional greenhouse practices. From 2 to 4 weeks after treatment, the seedling plants are examined and rated according to the rating system provided above. A rating 0 indicates growth as untreated control, a rating 9 indicates death.

[3] = tested on: Echinochloa grus galli (ECHCG); assay: Pre-emergence herbicidal evaluation, barnyard grass
Text: (§3) The pre-emergence herbicidal activity of the compounds of the present invention is exemplified by the following test in which the seeds of a variety of monocotyledonous and dicotyledonous plants are seperately mixed with potting soil and planted on top of approximately one inch of soil in separate pots. After planting, the pots are sprayed with the selected aqueous acetone solution containing test compound in sufficient quantity to provide the equivalent of about 0.0125 to 0.4 kg per hectare of test compound per pot. The treated pots are then placed on greenhouse benches, watered and cared for in accordance with conventional greenhouse procedures. From 2 to 4 weeks after treatment, the tests are terminated and each pot is examined and rated according to the rating system set forth below.

[4] = tested on: Glycine max (GLXMA); assay: Pre-emergence herbicidal evaluation, soyabeans
Text: as §3

[5] = tested on: Hordeum vulgare (HORVW); assay: Pre-emergence herbicidal evaluation, winter barley
Summary of the method: as §1

[6] = tested on: Solanum nigrum (SOLNI); assay: Post-emergence herbicidal evaluation, black nightshade; conditions: rated 2 to 4 weeks after treatment
Description: as §2

[7] = tested on: Hordeum vulgare (HORVW); assay: Post-emergence herbicidal evaluation, winter barley; conditions: rated 2 to 4 weeks after treatment
Description: as §2

[8] = tested on: Lamium purpureum (LAMPU); assay: Pre-emergence herbicidal evaluation, purple deadnettle
Summary of the method: as §1

[9] = tested on: Zea mays (ZEAMX); assay: Post-emergence herbicidal evaluation, maize; conditions: rated 2 to 4 weeks after treatment
Description: as §2

[10] = tested on: Stellaria media (STEME); assay: Pre-emergence herbicidal evaluation, chickweed
Summary of the method: as §1

[11] = tested on: Oryza sativum (ORYSA); assay: Pre-emergence herbicidal evaluation, rice
Text: as §3

[12] = tested on: Zea mays (ZEAMX); assay: Pre-emergence herbicidal evaluation, maize
Text: as §3

[13] = tested on: Glycine max (GLXMA); assay: Post-emergence herbicidal evaluation, soyabeans; conditions: rated 2 to 4 weeks after treatment
Description: as §2

[14] = tested on: Oryza sativum (ORYSA); assay: Post-emergence herbicidal evaluation, rice; conditions: rated 2 to 4 weeks after treatment
Description: as §2

[15] = tested on: Triticum aestivum (TRZAW); assay: Pre-emergence herbicidal evaluation, winter wheat
Summary of the method: as §1

[16] = tested on: Triticum aestivum (TRZAW); assay: Post-emergence herbicidal evaluation, winter wheat; conditions: rated 2 to 4 weeks after treatment
Description: as §2

[17] = tested on: Abutilon theophrasti (ABUTH); assay: Post-emergence herbicidal evaluation, velvetleaf; conditions: rated 2 to 4 weeks after treatment
Description: as §2

[18] = tested on: Alopecurus myosuroides (ALOMY); assay: Post-emergence herbicidal evaluation, black grass; conditions: rated 2 to 4 weeks after treatment
Description: as §2

[19] = tested on: Ambrosia artemiisifolia (AMBEL); assay: Post-emergence herbicidal evaluation, ragweed; conditions: rated 2 to 4 weeks after treatment
Description: as §2

[20] = tested on: Lamium purpureum (LAMPU); assay: Post-emergence herbicidal evaluation, purple deadnettle; conditions: rated 2 to 4 weeks after treatment
Description: as §2

[21] = tested on: Solanum nigrum (SOLNI); assay: Pre-emergence herbicidal evaluation, black nightshade
Summary of the method: as §1

[22] = tested on: Galium aparine (GALAP); assay: Pre-emergence herbicidal evaluation, cleaver
Summary of the method: as §1

[23] = tested on: Ipomoea hederacea (IPOHE); assay: Post-emergence herbicidal evaluation, morning glory; conditions: rated 2 to 4 weeks after treatment
Description: as §2

[24] = tested on: Alopecurus myosuroides (ALOMY); assay: Pre-emergence herbicidal evaluation, black grass
Summary of the method: as §1

[25] = tested on: Matricaria inodora (MATIN); assay: Post-emergence herbicidal evaluation, mayweed; conditions: rated 2 to 4 weeks after treatment
Description: as §2

Cc1cc(OCC(F)(F)C(F)F)nc(Oc2cc(C(F)(F)F)nn2C)c1 [Example 6]
2 (2 - Slight effect): GLXMA rating ([4]; dose 0.025 kg/ha) | HORVW rating ([5]; dose 0.1 kg/ha) | SOLNI rating ([6]; dose 0.1 kg/ha) | HORVW rating ([7]; dose 0.1 kg/ha) | ZEAMX rating ([9]; dose 0.1 kg/ha) | ORYSA rating ([11]; dose 0.4 kg/ha) | TRZAW rating ([15]; dose 0.4 kg/ha) | TRZAW rating ([16]; dose 0.1 kg/ha) | ABUTH rating ([17]; dose 0.25 kg/ha) | ALOMY rating ([18]; dose 0.25 kg/ha)
3 (3 - Moderate effect): ECHCG rating ([3]; dose 0.025 kg/ha) | GLXMA rating ([4]; dose 0.1 kg/ha) | HORVW rating ([5]; dose 0.4 kg/ha) | HORVW rating ([7]; dose 0.4 kg/ha) | ZEAMX rating ([12]; dose 0.1 kg/ha) | TRZAW rating ([16]; dose 0.4 kg/ha) | AMBEL rating ([19]; dose 0.25 kg/ha) | ALOMY rating ([24]; dose 0.025 kg/ha)
8 (8 - Approaching complete kill): SETVI rating ([1]; dose 0.1 kg/ha) | ECHCG rating ([3]; dose 0.1 kg/ha) | ALOMY rating ([18]; dose 0.4 kg/ha) | SOLNI rating ([21]; dose 0.1 kg/ha) | GALAP rating ([22]; dose 0.4 kg/ha) | IPOHE rating ([23]; dose 0.1 kg/ha)
1 (1 - Trace effect): SOLNI rating ([6]; dose 0.25 kg/ha) | HORVW rating ([7]; dose 0.25 kg/ha) | ZEAMX rating ([9]; dose 0.25 kg/ha) | ORYSA rating ([11]; dose 0.1 kg/ha) | ZEAMX rating ([12]; dose 0.025 kg/ha) | ORYSA rating ([14]; dose 0.1 kg/ha) | ORYSA rating ([14]; dose 0.25 kg/ha) | ORYSA rating ([14]; dose 0.4 kg/ha) | TRZAW rating ([15]; dose 0.1 kg/ha) | TRZAW rating ([16]; dose 0.25 kg/ha) | GALAP rating ([22]; dose 0.013 kg/ha) | GALAP rating ([22]; dose 0.025 kg/ha) | ALOMY rating ([24]; dose 0.013 kg/ha)
0 (0 - No effect): ECHCG rating ([3]; dose 0.013 kg/ha) | GLXMA rating ([4]; dose 0.013 kg/ha) | HORVW rating ([5]; dose 0.013 kg/ha) | HORVW rating ([5]; dose 0.025 kg/ha) | ORYSA rating ([11]; dose 0.013 kg/ha) | ORYSA rating ([11]; dose 0.025 kg/ha) | ZEAMX rating ([12]; dose 0.013 kg/ha) | TRZAW rating ([15]; dose 0.013 kg/ha) | TRZAW rating ([15]; dose 0.025 kg/ha)
4 (4 - Injury): SETVI rating ([1]; dose 0.013 kg/ha) | DIGSA rating ([2]; dose 0.25 kg/ha) | SOLNI rating ([6]; dose 0.4 kg/ha) | ABUTH rating ([17]; dose 0.1 kg/ha) | AMBEL rating ([19]; dose 0.1 kg/ha) | LAMPU rating ([20]; dose 0.25 kg/ha) | SOLNI rating ([21]; dose 0.013 kg/ha) | SOLNI rating ([21]; dose 0.025 kg/ha) | MATIN rating ([25]; dose 0.25 kg/ha)
7 (7 - Good herbicidal effect): DIGSA rating ([2]; dose 0.4 kg/ha) | LAMPU rating ([8]; dose 0.013 kg/ha) | LAMPU rating ([8]; dose 0.025 kg/ha) | GLXMA rating ([13]; dose 0.1 kg/ha) | GLXMA rating ([13]; dose 0.25 kg/ha) | GLXMA rating ([13]; dose 0.4 kg/ha) | LAMPU rating ([20]; dose 0.4 kg/ha) | IPOHE rating ([23]; dose 0.25 kg/ha)
5 (5 - Definite injury): GLXMA rating ([4]; dose 0.4 kg/ha) | ZEAMX rating ([9]; dose 0.4 kg/ha) | ZEAMX rating ([12]; dose 0.4 kg/ha) | GALAP rating ([22]; dose 0.1 kg/ha)
6 (6 - Herbicidal effect): SETVI rating ([1]; dose 0.025 kg/ha) | DIGSA rating ([2]; dose 0.1 kg/ha) | ABUTH rating ([17]; dose 0.4 kg/ha) | ALOMY rating ([18]; dose 0.1 kg/ha) | AMBEL rating ([19]; dose 0.4 kg/ha) | LAMPU rating ([20]; dose 0.1 kg/ha) | MATIN rating ([25]; dose 0.1 kg/ha) | MATIN rating ([25]; dose 0.4 kg/ha)
9 (9 - Complete kill): SETVI rating ([1]; dose 0.4 kg/ha) | ECHCG rating ([3]; dose 0.4 kg/ha) | LAMPU rating ([8]; dose 0.1 kg/ha) | LAMPU rating ([8]; dose 0.4 kg/ha) | STEME rating ([10]; dose 0.1 kg/ha) | STEME rating ([10]; dose 0.4 kg/ha) | SOLNI rating ([21]; dose 0.4 kg/ha) | IPOHE rating ([23]; dose 0.4 kg/ha) | ALOMY rating ([24]; dose 0.1 kg/ha) | ALOMY rating ([24]; dose 0.4 kg/ha)
